Data taken from ChEMBL document CHEMBL1201862, “PubChem BioAssay data set” (2004).
Activity calls are given as the source filed them. For most assays here, no stated cut-off is given here; in the data, actives have a measured EC50 and inactives only a lower limit.

Assays:
[1] = molecular target: T1, Replicative DNA helicase DnaB (Mycobacterium tuberculosis, UniProt P9WMR3); test: DnaB intein splicing inhibitors, dose response, biochemical, cell-free fluorescence (AID 449749); assay type: functional
T1 sequence (P9WMR3 whole entry): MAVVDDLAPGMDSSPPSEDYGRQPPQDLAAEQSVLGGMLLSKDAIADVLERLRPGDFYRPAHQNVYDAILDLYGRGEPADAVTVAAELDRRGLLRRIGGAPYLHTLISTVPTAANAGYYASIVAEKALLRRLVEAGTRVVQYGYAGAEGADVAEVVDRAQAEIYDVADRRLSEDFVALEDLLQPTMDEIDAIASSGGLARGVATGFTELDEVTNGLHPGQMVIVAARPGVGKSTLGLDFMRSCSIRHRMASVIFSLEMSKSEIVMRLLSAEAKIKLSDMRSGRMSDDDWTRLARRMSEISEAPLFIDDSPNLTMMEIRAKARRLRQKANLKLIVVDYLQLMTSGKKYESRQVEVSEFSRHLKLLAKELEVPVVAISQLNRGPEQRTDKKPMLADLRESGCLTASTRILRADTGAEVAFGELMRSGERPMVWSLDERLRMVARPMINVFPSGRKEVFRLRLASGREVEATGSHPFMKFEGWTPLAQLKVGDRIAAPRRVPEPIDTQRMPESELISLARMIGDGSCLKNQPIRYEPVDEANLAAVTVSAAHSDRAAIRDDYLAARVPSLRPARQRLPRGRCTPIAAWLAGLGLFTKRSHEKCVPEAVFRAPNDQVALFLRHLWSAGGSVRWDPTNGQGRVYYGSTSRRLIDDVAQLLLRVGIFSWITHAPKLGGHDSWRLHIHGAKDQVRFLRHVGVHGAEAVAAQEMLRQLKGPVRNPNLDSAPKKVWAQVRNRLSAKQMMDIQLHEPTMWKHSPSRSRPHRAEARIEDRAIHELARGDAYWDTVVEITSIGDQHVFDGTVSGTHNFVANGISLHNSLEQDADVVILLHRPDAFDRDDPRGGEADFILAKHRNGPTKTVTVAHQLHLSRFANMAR

[2] = molecular target: T2, Apoptotic protease-activating factor 1 (Homo sapiens, UniProt O14727); assay type: functional
T2 sequence (O14727 whole entry): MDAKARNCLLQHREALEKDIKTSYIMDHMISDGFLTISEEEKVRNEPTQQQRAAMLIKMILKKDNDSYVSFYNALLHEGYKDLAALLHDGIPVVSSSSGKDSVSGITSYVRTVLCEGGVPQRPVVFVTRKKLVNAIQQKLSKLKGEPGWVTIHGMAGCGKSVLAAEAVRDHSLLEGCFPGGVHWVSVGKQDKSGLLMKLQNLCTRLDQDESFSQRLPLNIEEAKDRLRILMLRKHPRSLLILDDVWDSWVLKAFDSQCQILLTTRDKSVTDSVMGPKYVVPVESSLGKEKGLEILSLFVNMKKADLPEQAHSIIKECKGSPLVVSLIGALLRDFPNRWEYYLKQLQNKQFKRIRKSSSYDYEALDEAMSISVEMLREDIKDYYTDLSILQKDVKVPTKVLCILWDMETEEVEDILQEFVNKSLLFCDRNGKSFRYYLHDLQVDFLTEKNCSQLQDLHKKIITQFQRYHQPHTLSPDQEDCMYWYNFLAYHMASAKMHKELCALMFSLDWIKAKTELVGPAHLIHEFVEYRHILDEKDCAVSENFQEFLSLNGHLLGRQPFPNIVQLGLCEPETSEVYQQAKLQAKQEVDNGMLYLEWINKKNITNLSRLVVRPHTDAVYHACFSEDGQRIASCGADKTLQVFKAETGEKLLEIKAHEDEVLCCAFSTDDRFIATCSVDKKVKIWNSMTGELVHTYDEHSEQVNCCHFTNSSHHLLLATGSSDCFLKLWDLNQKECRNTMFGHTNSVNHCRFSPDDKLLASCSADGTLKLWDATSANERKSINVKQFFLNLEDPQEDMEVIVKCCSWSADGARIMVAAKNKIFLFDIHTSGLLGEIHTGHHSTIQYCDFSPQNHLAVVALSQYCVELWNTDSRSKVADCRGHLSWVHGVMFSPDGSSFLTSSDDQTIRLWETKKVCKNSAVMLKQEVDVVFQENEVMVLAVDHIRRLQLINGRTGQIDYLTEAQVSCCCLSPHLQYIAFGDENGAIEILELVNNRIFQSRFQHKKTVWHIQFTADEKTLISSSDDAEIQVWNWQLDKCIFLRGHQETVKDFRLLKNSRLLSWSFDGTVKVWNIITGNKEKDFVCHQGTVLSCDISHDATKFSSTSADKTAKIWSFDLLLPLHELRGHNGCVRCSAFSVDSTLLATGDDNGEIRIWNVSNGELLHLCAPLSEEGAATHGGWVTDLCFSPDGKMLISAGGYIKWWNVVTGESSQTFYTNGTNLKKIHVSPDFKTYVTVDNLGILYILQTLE

[3] = molecular target: T3, Protein RecA (Mycobacterium tuberculosis, UniProt P9WHJ3); test: Fluorescence Cell-Free Homogeneous Dose Retest to Identify Inhibitors of RecA-Intein Splicing Activity. [Related pubchem assays (depositor defined):AID2097, AID2223, AID489010, AID492950]; assay type: functional
T3 sequence (P9WHJ3 whole entry): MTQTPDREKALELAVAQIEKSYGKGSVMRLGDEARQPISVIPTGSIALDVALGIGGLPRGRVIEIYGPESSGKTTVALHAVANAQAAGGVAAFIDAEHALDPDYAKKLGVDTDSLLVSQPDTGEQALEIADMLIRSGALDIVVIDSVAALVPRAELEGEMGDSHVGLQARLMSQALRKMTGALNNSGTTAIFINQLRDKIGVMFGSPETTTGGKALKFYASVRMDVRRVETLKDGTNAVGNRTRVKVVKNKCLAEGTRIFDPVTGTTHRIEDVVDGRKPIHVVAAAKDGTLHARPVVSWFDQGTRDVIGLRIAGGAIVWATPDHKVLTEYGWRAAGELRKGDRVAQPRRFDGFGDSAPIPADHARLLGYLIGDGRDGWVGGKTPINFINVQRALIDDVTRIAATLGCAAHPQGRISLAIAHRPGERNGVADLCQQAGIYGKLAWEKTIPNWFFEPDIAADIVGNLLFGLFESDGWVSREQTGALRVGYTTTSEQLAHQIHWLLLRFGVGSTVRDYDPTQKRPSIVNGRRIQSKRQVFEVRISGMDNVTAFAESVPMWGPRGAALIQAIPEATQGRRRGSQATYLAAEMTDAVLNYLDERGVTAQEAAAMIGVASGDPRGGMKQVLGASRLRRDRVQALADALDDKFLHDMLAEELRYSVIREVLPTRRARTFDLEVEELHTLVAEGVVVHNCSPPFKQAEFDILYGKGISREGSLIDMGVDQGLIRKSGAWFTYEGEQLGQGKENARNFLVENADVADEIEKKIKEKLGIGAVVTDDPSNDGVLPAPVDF

[4] = NIH-3T3 fibroblast cytotoxicity, dose response, cytotoxicity control, cell-based, fluorescence, Alamar Blue, secondary assay (AID 2327); assay type: functional;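 further: NIH-3T3 mouse fibroblasts cultured with fluconazole at 8 µg/mL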
[5] = C. albicans growth with fluconazole, confirmation, fluorescence, retest (AID 2467); assay type: functional, cell-based

Row | Compound | AC50 [1] | IC50 [2] | EC50 [3] | EC50 [4] | EC50 [5]
1 | COc1ccc(-n2c3nc4ccccc4nc3c3c(=N)oc(C)nc32)cc1 | > 120 µM (inactive) | 19.1 µM (active) | > 380 µM (inactive) |  | 
2 | O=C(/C=C/c1cccs1)NC(=S)NNC(=O)c1ccccc1O |  |  |  | 35.5 µM (active) | > 38 µM (not active)
3 | O=C(N/N=C1\C/C(=N\NC(=O)c2ccncc2)c2ccccc21)c1ccncc1 | 6.09 µM (active) | 12.8 µM (active) | 0.732 µM (active) |  | 
4 | CC(=O)N(Cc1ccc(F)cc1)C1=C(NCCc2ccccc2)C(=O)c2ccccc2C1=O | 4.93 µM (active) | 7.39 µM (active) | 1.42 µM (active) | 9.84 µM (inconclusive) | 0.785 µM (active)
5 | CCCCC(=O)NC(c1ccccc1)c1ccc2cccnc2c1O (stereo not given) |  |  |  | 19.9 µM (inconclusive) | 0.569 µM (active)
